In patent US10611778B2, “Fused bicyclic inhibitors of menin-MLL interaction” (Janssen Pharmaceutica NV, priority 2016, dated 2020):

system: MV-4-11; test: Proliferation assay (spheroid assay) MV-4-11; type: cell-based, human; conditions: Homo sapiens, MV4-11, MV-4-11; averaged values over all measurements; read-out: Spheroid assay MV-4-11 (IC50)
Procedure: The anti-proliferative effect of menin/MLL protein/protein interaction inhibitor test compounds was assessed in human leukemia cell lines. The cell lines MV-4-11 and MOLM14 harbor MLL translocations and express the MLL fusion proteins MLL-AF4 and MLL-AF9, respectively, as well as the wildtype protein from the second allele. […] K562 and KG1 were used as a control cell lines containing two MLL wildtype alleles in order to exclude compounds that display general cytotoxic effects.
MV-4-11 and MOLM14 were cultured in RPMI-1640 (Sigma Aldrich) supplemented with 10% fetal bovine serum (HyClone), 2 mM L-glutamine (Sigma Aldrich) and 50 μg/ml gentamycin (Gibco). K562 were propagated in RPMI-1640 (Sigma Aldrich) supplemented with 20% fetal bovine serum (HyClone), 2 mM L-glutamine (Sigma Aldrich) and 50 μg/ml gentamycin (Gibco). KG1 were cultured in Iscove's MDM (Gibco) supplemented with 20% fetal bovine serum (HyClone), 2 mM L-glutamine (Sigma Aldrich) and 50 μg/ml gentamycin (Gibco).
In order to assess the anti-proliferative effects, 1,500 MV-4-11, 300 MOLM14, 750 K562 or 1,300 KG1 cells were seeded in 200 μl media per well in 96-well round bottom, ultra-low attachment plates (Costar, catalogue number 7007). Cell seeding numbers were chosen based on growth curves to ensure linear growth throughout the experiment. Test compounds were added at different concentrations and the DMSO content was normalized to 0.3%. Cells were incubated for 8 d at 37° C. and 5% CO2. Spheroid like growth was monitored in real-time by live-cell imaging (IncuCyteZOOM, Essenbio, 4× objective) acquiring one image every four hours for 8 d. Confluence (%) as a measure of spheroid size was determined using an integrated analysis tool.
In order to determine the cumulative effect of the test compounds over time, the area under the curve (AUC) in a plot of confluence against time was calculated. Confluence at the beginning of the experiment (t=0) was used as baseline for the AUC calculation.
Absolute IC50 values were calculated according to the following procedure: % Control=(AUC sample/AUC control)*100
AUC control=mean AUC of control values (cells without compound/DMSO as vehicle control)
A non-linear curve fit was applied using the least squares (ordinary) fit method to the plot of % control versus compound concentration. Based on this, the absolute IC50 value (half maximal inhibitory concentration of the test compound causing an anti-proliferative effect of 50% relative to the vehicle control) was calculated.

SMILES	IC50 [µM]
Fc1cncc(CN2CC[C@@H]3CN(c4ncnc5sc(CC(F)(F)F)cc45)C[C@@H]3C2)c1 (single isomer, unassigned) [Compound 38]	2.3
FC(F)(F)Cc1cc2c(N3C[C@H]4CCN(Cc5cncc(Cl)c5)C[C@H]4C3)ncnc2s1 (single isomer, unassigned) [Compound 43]	1.3

target: T1, Menin/MLL (terbium chelate-labeled menin, FITC-MBM1 peptide) (Homo sapiens, UniProt O00255, T541A); test: Menin/MLL homogenous time-resolved fluorescence (HTRF) assay; type: binding; conditions: averaged values over all measurements; read-out: Menin HTRF assay (IC50)
T1 construct: Menin (a.a. 1-610-6×his tag) was labeled with terbium cryptate as follows
T1 sequence (O00255 with tags, fused parts or gaps T541A): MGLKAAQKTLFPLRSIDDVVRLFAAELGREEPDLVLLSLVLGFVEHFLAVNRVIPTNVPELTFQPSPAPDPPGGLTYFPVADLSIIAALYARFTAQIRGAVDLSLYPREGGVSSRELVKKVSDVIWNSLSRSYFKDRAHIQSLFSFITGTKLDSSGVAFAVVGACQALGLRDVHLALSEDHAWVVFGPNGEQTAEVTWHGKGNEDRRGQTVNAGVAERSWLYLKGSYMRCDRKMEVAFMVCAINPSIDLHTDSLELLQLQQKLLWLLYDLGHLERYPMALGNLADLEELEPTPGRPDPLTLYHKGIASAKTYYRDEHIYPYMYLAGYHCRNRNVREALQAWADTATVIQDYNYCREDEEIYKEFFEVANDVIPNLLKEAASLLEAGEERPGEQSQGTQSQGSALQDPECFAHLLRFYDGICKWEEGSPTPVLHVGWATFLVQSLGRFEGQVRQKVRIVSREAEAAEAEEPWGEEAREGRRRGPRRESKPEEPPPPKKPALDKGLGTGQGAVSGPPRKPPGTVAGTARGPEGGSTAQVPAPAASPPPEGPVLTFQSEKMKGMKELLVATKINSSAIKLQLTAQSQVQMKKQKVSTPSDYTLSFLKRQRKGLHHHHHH
Procedure: 3) Menin/MLL Homogenous Time-Resolved Fluorescence (HTRF) Assay
To an untreated, white 384-well microtiter plate was added 40 nL 200× test compound in DMSO and 4 μL 2× terbium chelate-labeled menin (vide infra for preparation) in assay buffer (40 mM Tris-HCl, pH 7.5, 50 mM NaCl, 1 mM DTT and 0.05% Pluronic F-127). After incubation of test compound and terbium chelate-labeled menin for 5 min at ambient temperature, 4 μL 2×FITC-MBM1 peptide (FITC-β-alanine-SARWRFPARPGT-NH2) in assay buffer was added, the microtiter plate centrifuged at 1000 rpm for 1 min and the assay mixtures incubated for 15 min at ambient temperature. The relative amount of menin⋅FITC-MBM1 complex present in an assay mixture is determined by measuring the homogenous time-resolved fluorescence (HTRF) of the terbium/FITC donor/acceptor fluorophore pair using a BMG Pherastar plate reader (ex. 337 nm/terbium em. 490 nm/FITC em. 520 nm) at ambient temperature. The degree of fluorescence resonance energy transfer (the HTRF value) is expressed as the ratio of the fluorescence emission intensities of the FITC and terbium fluorophores (F^em 520 nm/F^em 490 nm). The final concentrations of reagents in the binding assay are 100 pM terbium chelate-labeled menin, 75 nM FITC-MBM1 peptide and 0.5% DMSO in assay buffer. Dose-response titrations of test compounds are conducted using an 11 point, three-fold serial dilution scheme, starting at 31 μM.
Compound potencies were determined by first calculating % inhibition at each compound concentration according to equation 1: % inhibition=((HC−LC)−(HTRF^compound−LC))/(HC−LC))*100 (Eqn 1)
Where LC and HC are the HTRF values of the assay in the presence or absence of a saturating concentration of a compound that competes with FITC-MBM1 for binding to menin, and HTRF^compound is the measured HTRF value in the presence of the test compound. HC and LC HTRF values represent an average of at least 16 replicates per plate.
Where Bottom and Top are the lower and upper asymptotes of the dose-response curve, respectively, IC50 is the concentration of compound that yields 50% inhibition of signal and h is the Hill coefficient.
Preparation of Terbium cryptate labeling of Menin: Menin (a.a. 1-610-6×his tag) was labeled with terbium cryptate as follows. 2 mg of Menin was buffer exchanged into 1× phosphate buffered saline. 16 uM Menin was incubated with 4-fold molar excess NHS-terbium cryptate (Cisbio Bioassays, Bedford, Mass.) for 2 hours at room temperature. The labeled protein was purified away from free label by running the reaction over a Superdex 200 Increase 10/300 GL column at 0.75 ml/min. Peak fractions were collected, aliquoted and frozen at −80° C.

SMILES	IC50 [nM]
Cn1cc(CN2C(=O)C[C@H]3CCN(c4ncnc5sc(CC(F)(F)F)cc45)C[C@H]32)cn1 (single isomer, unassigned) [Compound 35A]	8330
Cn1cc(CN2C(=O)C[C@@H]3CCN(c4ncnc5sc(CC(F)(F)F)cc45)C[C@@H]32)cn1 (single isomer, unassigned) [Compound 35B]	> 25000
Fc1cncc(CN2CC[C@@H]3CN(c4ncnc5sc(CC(F)(F)F)cc45)C[C@@H]3C2)c1 (single isomer, unassigned) [Compound 38]	208
FC(F)(F)Cc1cc2c(N3C[C@H]4CCN(Cc5cncc(Cl)c5)C[C@H]4C3)ncnc2s1 (single isomer, unassigned) [Compound 43]	97
FC(F)(F)Cc1cc2c(N3C[C@H]4CCN(CCc5ccccc5)C[C@H]4C3)ncnc2s1 (single isomer, unassigned) [Compound 48]	446
FC(F)(F)Cc1cc2c(N3C[C@H]4CCN(Cc5ccncn5)C[C@H]4C3)ncnc2s1 (single isomer, unassigned) [Compound 50]	281
FC(F)(F)Cc1cc2c(N3C[C@H]4CCN(Cc5cnccn5)C[C@H]4C3)ncnc2s1 (single isomer, unassigned) [Compound 53]	252
O=c1cc(CN2CC[C@@H]3CN(c4ncnc5sc(CC(F)(F)F)cc45)C[C@@H]3C2)cc[nH]1 (single isomer, unassigned) [Compound 66]	492
Cn1cc(CN2CC[C@@H]3CN(c4ncnc5sc(CC(F)(F)F)cc45)C[C@@H]3C2)cn1 (single isomer, unassigned) [Compound 71A]	985
FC(F)(F)Cc1cc2c(N3C[C@H]4CN(Cc5cccnc5)CC[C@H]4C3)ncnc2s1 (single isomer, unassigned) [Compound 72]	991
FC(F)(F)Cc1cc2c(N3C[C@H]4CCN(CC(F)(F)F)C[C@H]4C3)ncnc2s1 (single isomer, unassigned) [Compound 73]	2460
FC(F)CN1CC[C@@H]2CN(c3ncnc4sc(CC(F)(F)F)cc34)C[C@@H]2C1 (single isomer, unassigned) [Compound 74]	2220
CC(C)[C@H](c1cnn(C)c1)N1CC[C@@H]2CN(c3ncnc4sc(CC(F)(F)F)cc34)C[C@@H]2C1 (single isomer, unassigned) [Compound 77A]	201
CC(C)[C@@H](c1cnn(C)c1)N1CC[C@@H]2CN(c3ncnc4sc(CC(F)(F)F)cc34)C[C@@H]2C1 (single isomer, unassigned) [Compound 77B]	1620
CC(C)[C@H](c1cnn(C)c1)N1CC[C@H]2CN(c3ncnc4sc(CC(F)(F)F)cc34)C[C@H]2C1 (single isomer, unassigned) [Compound 78A]	520
CC(C)[C@@H](c1cnn(C)c1)N1CC[C@H]2CN(c3ncnc4sc(CC(F)(F)F)cc34)C[C@H]2C1 (single isomer, unassigned) [Compound 78B]	1320
C[C@H](c1cnn(C)c1)N1CC[C@@H]2CN(c3ncnc4sc(CC(F)(F)F)cc34)C[C@@H]2C1 (single isomer, unassigned) [Compound 79A]	955
C[C@@H](c1cnn(C)c1)N1CC[C@@H]2CN(c3ncnc4sc(CC(F)(F)F)cc34)C[C@@H]2C1 (single isomer, unassigned) [Compound 79B]	964
Cn1cc(CN2CC[C@@H]3CN(c4ncnc5sc(CC(F)(F)F)cc45)C[C@@H]3C2)cn1 (single isomer, unassigned) [Compound 87]	20
COc1ncc(CN2CC[C@@H]3CN(c4ncnc5sc(CC(F)(F)F)cc45)C[C@@H]3C2)cn1 (single isomer, unassigned) [Compound 88]	267
Cc1ncc(CN2CC[C@@H]3CN(c4ncnc5sc(CC(F)(F)F)cc45)C[C@@H]3C2)cn1 (single isomer, unassigned) [Compound 90]	317
FC(F)(F)Cc1cc2c(N3C[C@H]4CCN(CC5(F)CCOCC5)C[C@H]4C3)ncnc2s1 (single isomer, unassigned) [Compound 98]	504
FC(F)(F)Cc1cc2c(N3C[C@H]4CCN(Cc5cncnc5)C[C@H]4C3)ncnc2s1 (single isomer, unassigned) [Compound 104]	375
CC(C)(C)OC(=O)N1CCC(O)(CN2CC[C@@H]3CN(c4ncnc5sc(CC(F)(F)F)cc45)C[C@@H]3C2)CC1 (single isomer, unassigned) [Compound 109]	714
CC(C)CN1CCC2CN(c3ncnc4sc(CC(F)(F)F)cc34)CCC21 (centres unmarked) [Compound 25]	546
Cn1cc(CN2CC[C@@H]3CN(c4ncnc5sc(CC(F)(F)F)cc45)C[C@@H]32)cn1 [Compound 27C]	4530
Cn1cc(CN2CC[C@H]3CN(c4ncnc5sc(CC(F)(F)F)cc45)C[C@H]32)cn1 [Compound 27D]	~6910
O=C([C@@H]1CCCN1)N1CC[C@@H]2CN(c3ncnc4sc(CC(F)(F)F)cc34)C[C@@H]2C1 [Compound 80]	933
O=C([C@@H]1CCCN1)N1CC[C@H]2CN(c3ncnc4sc(CC(F)(F)F)cc34)C[C@H]2C1 [Compound 83]	985

same assay, conditions: individual measurements (not averaged); read-out: (3) Menin HTRF assay (IC50 (nM))

SMILES	IC50 [nM]
OCCn1cc(CN2CCC3CN(c4ncnc5sc(CC(F)(F)F)cc45)CCC32)cn1 (centres unmarked) [Compound 24]	244
